Here are results for one molecule from patent US9718835B2 (China Medical University Hospital, priority 2013, dated 2017).

Series [1] has as its system KB (epidermoid carcinoma of the nasopharynx). The series is described as follows: Sulforhodamine B cytotoxicity assay, KB. Particulars: Table 1; 72 h; average ± SD; read-out: IC50 KB. In kind it is cell-based, human. The procedure: The 12 novel 1-derivatives 9a-l were evaluated for in vitro antiproliferative activity against four human tumor cell lines, KB (nasopharyngeal), A-549 (lung), DU-145 (prostate), and KBvin (MDR KB subline), by using a sulforhodamine B colorimetric assay with triplicate experiments.^30 Compounds 1 and 3 were used as controls.
(§1) The human tumor cell lines used in this manuscript were A-549 (lung carcinoma), MDA-MB-231 (triple-negative breast cancer), DU-145 (hormone-insensitive prostate cancer), KB (originally isolated from epidermoid carcinoma of the nasopharynx), KBvin (vincristine-resistant KB subline), and HCT116 (colorectal adenocarcinoma). These cell lines were obtained from the Lineberger Comprehensive Cancer Center (UNC-CH) or from ATCC (Manassas, Va.), except KBvin, which was a generous gift of Professor Y.-C. Cheng (Yale University). All cell lines were maintained and assayed in RPMI-1640 medium containing 2 mM L-glutamine and 25 mM HEPES (HyClone), supplemented with 10% heat-inactivated fetal bovine serum (HyClone), 100 μg/mL streptomycin, 100 IU/mL penicillin, and 0.25 μg/mL amphotericin B (Cellgro) in a humidified atmosphere containing 5% CO2 in air. Compound stock solutions were prepared at 10 mM in DMSO and diluted with culture medium with the final DMSO concentration ≦0.01% (v/v), a concentration without effect on cell growth. The 4-6×10^3 cells/well were cultured for 72 h with various concentrations of test compounds in 96-well plate at 37° C. […] Each assay was performed in triplicate with duplicated samples.

The test system of series [2] is KBvin (vincristine-resistant KB subline). The series is described as follows: Sulforhodamine B cytotoxicity assay, KBvin. It counts as cell-based, human. To be noted: Table 1; 72 h; average ± SD; read-out: IC50 KBvin.
Text: as §1, with “Compound stock solutions were prepared at 10 mM in DMSO and diluted with culture medium with the final DMSO concentration ≦0.01% (v/v), a concentration without effect on cell growth.” left out
For orientation: In SRB staining, fixed cells bind dye roughly in proportion to their protein.

The test system of series [3] is MDA-MB-468 (Breast cancer). The series is described as follows: cells. To be noted: Table 6; read-out: In vitro cytotoxicity MDA-MB-468 (Breast cancer). It counts as cell-based, human.
The next series has as its system SKOV3 (Ovary cancer). The series is described as follows: cells. In kind it is cell-based, human. Particulars: Table 6; read-out: In vitro cytotoxicity SKOV3 (Ovary cancer).
The test system of a further series is HCT 116 (Colon cancer). The series is described as follows: cells. In kind it is cell-based, human. Particulars: Table 6; read-out: In vitro cytotoxicity HCT 116 (Colon cancer).
The next series relates to Topo II. The series is described as follows: Topo II activity assay, nuclear extracts of treated A-549 cells, catenated kDNA. It counts as cell-based, human. From the text:
First, we determined the effect of 9a on cell cycle distribution using flow cytometry analysis. […] Because it has been shown that 1-Topo I-DNA covalent complexes enhance the transcription-dependent degradation of Topo I via a 26S proteasome pathway,^32 the effects of 9a on the expression levels of Topo I and Topo II were investigated. […] Compound 9a acts directly on Topo I and results in the accumulation of covalent Topo I-DNA complexes followed by proteasomal Topo I degradation, which is the same effect as 1 and contributes to 9a's cytotoxicity.
Topo I activity test was performed using an assay kit (TopoGEN) according to the manufacturer's instructions. Nuclear extracts from 9a-treated A-549 cells were incubated with supercoiled DNA (for Topo I) or catenated kDNA (for Topo II) for 30 min at 37° C. Reaction mixture was separated by is 1% agarose gel in 1×TAE buffer. The gel was stained with ethidium bromide and photographed using Gel Doc XR (Bio-Rad).

The test system of series [4] is human colorectal adenocarcinoma HCT116 xenograft. The series is described as follows: Xenograft model antitumor assay. In kind it is in vivo, nu/nu mice. To be noted: for mice showing complete regression: i.v. 7 days then i.p., n=8, 31-day study. As to the method: Xenograft model antitumor assay using human colorectal adenocarcinoma cell line HCT116 was performed according to the regimen in Table 2. The 31-day study utilized four groups of mice (n=8) bearing established HCT116 xenograft with mean volumes of approximately 200 mm^3 on day one. The tumor growth and animal body weight change for each treatment group were measured three times per week (FIGS. 2 and 3). Compound 9a was administered intravenously (i.v.) for 7 days and then intraperitoneally (i.p.) at 5 and 10 mg/kg once every day (QD) to the end.
Five- to six-week-old female nu/nu mice (National Laboratory Animal Center, Taiwan) were inoculated subcutaneously with 2×10^6 human colorectal adenocarcinoma HCT116 cells in flank. When the grafted tumor volume reached the average volume of 200 mm^3, mice were randomly divided into four groups (n=8). Vehicle control and compound 9a at 5 or 10 mg/kg were administered i.v. once a day (QD) for 7 days and then i.p. once a day to the end. As an experimental control group, 100 mg/kg of compound 3 was administered i.v. once a week (QWK) to the end. The length (L) and width (W) of graft was measured every 3 to 4 days to the end, and the tumor volume was calculated as LW^2/2. Results were evaluated statistically by Student's t-test. This study was approved by the Institutional Animal Care and Use Committee (IACUC) of the National Taiwan University (Taipei, Taiwan), and was performed according to the institutional guidelines.

With `CC[C@@]1(OC(=O)CNC(Cc2ccc(OC)cc2)=NS(=O)(=O)c2ccc(C)cc2)C(=O)OCc2c1cc1n(c2=O)Cc2cc3ccccc3nc2-1` [Compound 9a], the IC50 in series [1] turned out to be 140 ± 18 nM; in series [2] it was 26 nM; in series [3], 22.8 ± 2.97 nM; with SKOV3 (Ovary cancer), 17.1 ± 2.27 nM; with HCT 116 (Colon cancer) it was 46.1 ± 1.74 nM. The “Topo II decatenation of kDNA” value in the series with Topo II was “failed to decatenate kineoplast DNA”. Besides, the “mice showing complete regression” value in series [4] (5 mg/kg QD) is listed as “Two of eight”; in series [4] (10 mg/kg QD) it was “three of eight”. The “antitumor activity in vivo (tumor growth)” value in series [4] (5 mg/kg QD, P<0.01, Student's t-test) is recorded as “significant antitumor activity”; in series [4] (10 mg/kg QD, P<0.001, Student's t-test), “significant antitumor activity”. Also, the “animal body weight change” value in series [4] (5 and 10 mg/kg QD, xenograft mice) is “no significant changes in body weight”.
